Each molecule was assayed on SKM MYOFIBRIL (assay: SKM myofibril AC1.4 (ATPase, PK/LDH coupled enzyme system)). Settings: screen at pCa=6.5.
Format: biochemical
Protocol: Assay components including the target protein complex, coupling enzymes and substrates, and ATP can then be added to the wells and the absorbance or fluorescence of each well of the plate can be measured with a plate reader.
In some embodiments, the method uses a 384 well plate format and a 25µL reaction volume. […] As will be appreciated by those in the art, the assay components are added in buffers and reagents. The incubation periods can be optimized to give adequate detection signals over the background. The assay can be done in real time giving the kinetics of ATP hydrolysis which increases the signal to noise ratio of the assay.
Just prior to screening, the actin, tropomyosin and troponin complex are mixed together in the desired ratio (e.g., 7:1:1) to achieve maximal calcium regulation of the actin filament. The screen is conducted at a pCa=6.5. This calcium concentration is in the physiological range during muscle contraction.
To measure the generation of ADP during the reaction, a pyruvate kinase/lactate dehydrogenase/NADH coupled enzyme system (PK/LDH) is added to the actin. The myosin is kept separately. The plates are read in real time so that kinetic curves are obtained. These compounds are in DMSO and were already spotted onto the bottoms of 384 well plates at 10 to 40 μg/ml final concentration.
Further: unit not given here.

| SMILES | SKM MYOFIBRIL AC1.4 (median) |
| --- | --- |
| Oc1ccc(-c2nc3cc(Cl)ccn3c2NCc2ccc(F)cc2)cc1 [4-(7-chloro-3-{[(4-fluorophenyl)methyl]amino}-4-hydroimidazo[1,2-a]pyridin-2-yl)phenol] | 10.9866 |
| Oc1ccc(-c2nc3ccc(F)cn3c2NC2CCCC2)cc1 [4-[3-(cyclopentylamino)-6-fluoro-4-hydroimidazo[1,2-a]pyridin-2-yl]phenol] | 26.6981 |
| CNC(=O)c1ccc2nc(-c3ccccc3O)c(NCc3cccc(Cl)c3)n2c1 [(3-{[(3-chlorophenyl)methyl]amino}-2-(2-hydroxyphenyl)(4-hydroimidazo[1,2-a]pyridin-6-yl))-N-methylcarboxamide] | 1.2348 |
| Cc1ccn2c(NCc3cccc(Cl)c3)c(-c3ccccc3O)nc2n1 [2-(3-{[(3-chlorophenyl)methyl]amino}-7-methyl-4-hydroimidazo[1,2-a]pyrimidin-2-yl)phenol] | 7.147 |
| Oc1ccccc1-c1nc2cnccn2c1NCc1ccc(F)cc1 [2-(3-{[(4-fluorophenyl)methyl]amino}-4-hydroimidazo[1,2-a]pyrazin-2-yl)phenol] | 4.6013 |
| Cc1ccc(CNc2c(-c3ccccc3O)nc3cc(C)ccn23)cc1 [2-(7-methyl-3-{[(4-methylphenyl)methyl]amino}-4-hydroimidazo[1,2-a]pyridin-2-yl)phenol] | 16.3079 |
| Oc1ccccc1-c1nc2ccc(Br)cn2c1NCc1ccc(F)cc1 [2-(6-bromo-3-{[(4-fluorophenyl)methyl]amino}-4-hydroimidazo[1,2-a]pyridin-2-yl)phenol] | 5.6018 |
| Oc1ccc(-c2nc3ccccn3c2NCc2ccc(F)cc2)cc1 [4-(3-{[(4-fluorophenyl)methyl]amino}-4-hydroimidazo[1,2-a]pyridin-2-yl)phenol] | 40.3674 |
| N#Cc1ccc2nc(-c3ccc(O)cc3)c(NC3CCCC3)n2c1 [3-(cyclopentylamino)-2-(4-hydroxyphenyl)-4-hydroimidazo[1,2-a]pyridine-6-carbonitrile] | 46.9669 |
| Cc1ccc2cc(-c3nc4cc(C)ccn4c3NCc3cccc(Cl)c3)c(O)nc2c1 [3-(3-{[(3-chlorophenyl)methyl]amino}-7-methyl(4-hydroimidazo[1,2-a]pyridin-2-yl))-7-methylquinolin-2-ol] | 9.2086 |
| N#Cc1ccc2nc(-c3ccccc3O)c(NCc3cccc(Cl)c3)n2c1 [3-{[(3-chlorophenyl)methyl]amino}-2-(2-hydroxyphenyl)-4-hydroimidazo[1,2-a]pyridine-6-carbonitrile] | 2.6805 |
| Cc1ccn2c(NCc3ccccc3)c(-c3ccccc3O)nc2c1 [2-{7-methyl-3-[benzylamino]-4-hydroimidazo[1,2-a]pyridin-2-yl}phenol] | 2.0618 |
| Cc1ccn2c(NCc3cccc(Cl)c3)c(-c3ccc(O)cc3O)nc2c1 [4-(3-{[(3-chlorophenyl)methyl]amino}-7-methyl-4-hydroimidazo[1,2-a]pyridin-2-yl)benzene-1,3-diol] | 22.1516 |
| Cc1ccn2c(NCc3ccccc3C)c(-c3ccccc3O)nc2c1 [2-(7-methyl-3-{[(2-methylphenyl)methyl]amino}-4-hydroimidazo[1,2-a]pyridin-2-yl)phenol] | 0.9648 |
| Cc1cccc2cc3c(nc12)OCC(=O)N(Cc1ccc(Cl)cc1)C3 [4-[(4-chlorophenyl)methyl]-10-methyl-2H,5H-1,4-oxazaperhydroepino[7,6-b]quinolin-3-one] | 18.1529 |
| Oc1ccc(-c2nc3ccc(-c4ccccc4)cn3c2NC2CCCC2)cc1 [4-[3-(cyclopentylamino)-6-phenyl-4-hydroimidazo[1,2-a]pyridin-2-yl]phenol] | 22.1213 |

| SMILES | SKM MYOFIBRIL AC1.4 (median) |
| --- | --- |
| COc1ccc(-c2nc3ccccn3c2NC2CCCCC2)cc1 [cyclohexyl[2-(4-methoxyphenyl)(4-hydroimidazo[1,2-a]pyridin-3-yl)]amine] | 16.6703 |
| Cc1ccn2c(NCc3cccc(F)c3)c(-c3ccccc3O)nc2c1 [2-(3-{[(3-fluorophenyl)methyl]amino}-7-methyl-4-hydroimidazo[1,2-a]pyridin-2-yl)phenol] | 1.4096 |
| CN(C)C(=O)c1ccc2nc(-c3ccccc3O)c(NCc3cccc(Cl)c3)n2c1 [(3-{[(3-chlorophenyl)methyl]amino}-2-(2-hydroxyphenyl)(4-hydroimidazo[1,2-a]pyridin-6-yl))-N,N-dimethylcarboxamide] | 16.9244 |
| C[C@@H](Nc1c(-c2ccc(O)cc2)nc2ccccn12)c1ccccc1 [4-{3-[((1R)-1-phenylethyl)amino]-4-hydroimidazo[1,2-a]pyridin-2-yl}phenol] | 28.0451 |
| O=C(O)c1ccc2nc(-c3ccccc3O)c(NCc3ccc(F)cc3)n2c1 [3-{[(4-fluorophenyl)methyl]amino}-2-(2-hydroxyphenyl)-4-hydroimidazo[1,2-a]pyridine-6-carboxylic acid] | 30.4725 |
| Oc1ccccc1-c1nc2ccccn2c1NCc1cccc(Cl)c1 [2-(3-{[(3-chlorophenyl)methyl]amino}-4-hydroimidazo[1,2-a]pyridin-2-yl)phenol] | 4.2459 |
| OCc1ccc2nc(-c3ccccc3O)c(NCc3ccc(F)cc3)n2c1 [2-(3-{[(4-fluorophenyl)methyl]amino}-6-(hydroxymethyl)-4-hydroimidazo[1,2-a]pyridin-2-yl)phenol] | 4.3564 |
| Oc1ccccc1-c1nc2ccccn2c1NC1CCCCC1 [2-[3-(cyclohexylamino)-4-hydroimidazo[1,2-a]pyridin-2-yl]phenol] | 8.1939 |
| CC(CO)c1ccn2c(NCc3cccc(Cl)c3)c(-c3ccccc3O)nc2c1 (stereo not shown) [2-(3-{[(3-chlorophenyl)methyl]amino}-7-(1-hydroxy-isopropyl)-4-hydroimidazo[1,2-a]pyridin-2-yl)phenol] | 1.2697 |
| Oc1ccc(-c2nc3ccccn3c2NC2CCCC2)cc1 [4-[3-(cyclopentylamino)-4-hydroimidazo[1,2-a]pyridin-2-yl]phenol] | 19.8598 |
| Oc1ccccc1-c1nc2ccccn2c1NCc1ccc(F)cc1 [2-(3-{[(4-fluorophenyl)methyl]amino}-4-hydroimidazo[1,2-a]pyridin-2-yl)phenol] | 3.2661 |
| CCC(C)(C)Nc1c(-c2cc3cccc(C)c3nc2O)nc2ccccn12 [3-{3-[(1,1-dimethylpropyl)amino](4-hydroimidazo[1,2-a]pyridin-2-yl)}-8-methylquinolin-2-ol] | 2.3075 |
| Cc1cccn2c(NC3CCCCC3)c(-c3ccc(O)cc3)nc12 [4-[3-(cyclohexylamino)-8-methyl-4-hydroimidazo[1,2-a]pyridin-2-yl]phenol] | 8.8767 |
| CCC(C)(C)Nc1c(-c2cc3ccc(C)c(C)c3nc2O)nc2ccccn12 [3-{3-[(1,1-dimethylpropyl)amino](4-hydroimidazo[1,2-a]pyridin-2-yl)}-7,8-dimethylquinolin-2-ol] | 1.5814 |
| CN(C)CCNCc1ccc2nc(-c3ccccc3O)c(NCc3cccc(Cl)c3)n2c1 [2-[6-({[2-(dimethylamino)ethyl]amino}methyl)-3-{[(3-chlorophenyl)methyl]amino}-4-hydroimidazo[1,2-a]pyridin-2-yl]phenol] | 6.9925 |

From patent publication US20100173930A1, “Certain Chemical Entities, Compositions and Methods” (priority 2006, published 2010)
